Measurements: patent US20220281848A1, “PYRAZOLE-SUBSTITUTED PYRROLIDINONES AS HERBICIDES” (FMC Corporation, priority 2019, published 2022)

System: plants
Experiment: Test D pre-emergence, other plants of Tables D1 and D3
Format: in vivo
Details: for damage to plant, ALOMY / damage to plant, AVEFA / damage to plant, BEAVA / damage to plant, BROTE / damage to plant, BRSNN / damage to plant, HORVW / damage to plant, SINAR: pre-emergence, 100=total damage, 0=no damage; for ABUTH damage to plant (100=total damage; 0=no damage) / AMARE damage to plant (100=total damage; 0=no damage) / DIGSA damage to plant (100=total damage; 0=no damage) / ECHCG damage to plant (100=total damage; 0=no damage) / ORYSA damage to plant (100=total damage; 0=no damage) / PANMI damage to plant (100=total damage; 0=no damage) / SETFA damage to plant (100=total damage; 0=no damage): preemergent
Outline: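 Damage was rated visually from 0 (none) to 100 (total), at 20 DAA for pre-emergence and 15 d for post-emergence. Plants grew from safener-treated seed in a glasshouse at 24/18° C. or 20/16° C. day/night, 65% humidity, watered twice daily.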

**Q.** For CN1CC(c2cc(C(F)(F)F)n(C)n2)C(C(=O)Nc2cccc(F)n2)C1=O (racemic) [Compound 24], which “damage to plant, ALOMY” value (rate 15, 20 DAA) is on record?
**A.** 0

**Q.** And the “damage to plant, AVEFA” value (rate 15, 20 DAA)?
**A.** 0

**Q.** And the “damage to plant, BEAVA” value (rate 15, 20 DAA)?
**A.** 0

**Q.** What about the “damage to plant, BROTE” value (rate 15, 20 DAA) of the same compound?
**A.** 0

**Q.** What about the “damage to plant, BRSNN” value (rate 15, 20 DAA) of the same compound?
**A.** 0

**Q.** And the “damage to plant, HORVW” value (rate 15, 20 DAA)?
**A.** 0

**Q.** And the “damage to plant, SINAR” value (rate 15, 20 DAA)?
**A.** 0

**Q.** What about the “damage to plant, ALOMY” value (rate 30, 20 DAA) of the same compound?
**A.** 0

**Q.** And the “damage to plant, AVEFA” value (rate 30, 20 DAA)?
**A.** 0

**Q.** What about the “damage to plant, BEAVA” value (rate 30, 20 DAA) of the same compound?
**A.** 0

**Q.** And the “damage to plant, BROTE” value (rate 30, 20 DAA)?
**A.** 0

**Q.** What about the “damage to plant, BRSNN” value (rate 30, 20 DAA) of the same compound?
**A.** 0

**Q.** What about the “damage to plant, HORVW” value (rate 30, 20 DAA) of the same compound?
**A.** 0

**Q.** And the “damage to plant, SINAR” value (rate 30, 20 DAA)?
**A.** 0

**Q.** And the “damage to plant, ALOMY” value (rate 60, 20 DAA)?
**A.** 0

**Q.** And the “damage to plant, AVEFA” value (rate 60, 20 DAA)?
**A.** 0

**Q.** And the “damage to plant, BEAVA” value (rate 60, 20 DAA)?
**A.** 0

**Q.** And the “damage to plant, BROTE” value (rate 60, 20 DAA)?
**A.** 0

**Q.** What about the “damage to plant, BRSNN” value (rate 60, 20 DAA) of the same compound?
**A.** 0

**Q.** What about the “damage to plant, HORVW” value (rate 60, 20 DAA) of the same compound?
**A.** 0

**Q.** And the “damage to plant, SINAR” value (rate 60, 20 DAA)?
**A.** 0

**Q.** And the “damage to plant, ALOMY” value (rate 130, 20 DAA)?
**A.** 0

**Q.** And the “damage to plant, AVEFA” value (rate 130, 20 DAA)?
**A.** 0

**Q.** And the “damage to plant, BEAVA” value (rate 130, 20 DAA)?
**A.** 0

**Q.** What about the “damage to plant, BROTE” value (rate 130, 20 DAA) of the same compound?
**A.** 0

**Q.** And the “damage to plant, BRSNN” value (rate 130, 20 DAA)?
**A.** 0

**Q.** And the “damage to plant, HORVW” value (rate 130, 20 DAA)?
**A.** 0

**Q.** What about the “damage to plant, SINAR” value (rate 130, 20 DAA) of the same compound?
**A.** 0

**Q.** And the “damage to plant, ALOMY” value (rate 250, 20 DAA)?
**A.** 0

**Q.** And the “damage to plant, AVEFA” value (rate 250, 20 DAA)?
**A.** 0

**Q.** What about the “damage to plant, BEAVA” value (rate 250, 20 DAA) of the same compound?
**A.** 0

**Q.** And the “damage to plant, BROTE” value (rate 250, 20 DAA)?
**A.** 0

**Q.** And the “damage to plant, BRSNN” value (rate 250, 20 DAA)?
**A.** 0

**Q.** And the “damage to plant, HORVW” value (rate 250, 20 DAA)?
**A.** 0

**Q.** And the “damage to plant, SINAR” value (rate 250, 20 DAA)?
**A.** 0

**Q.** And the “damage to plant, ALOMY” value (rate 500, 20 DAA)?
**A.** 10

**Q.** What about the “damage to plant, AVEFA” value (rate 500, 20 DAA) of the same compound?
**A.** 10

**Q.** And the “damage to plant, BEAVA” value (rate 500, 20 DAA)?
**A.** 0

**Q.** And the “damage to plant, BROTE” value (rate 500, 20 DAA)?
**A.** 0

**Q.** And the “damage to plant, BRSNN” value (rate 500, 20 DAA)?
**A.** 0

**Q.** And the “damage to plant, HORVW” value (rate 500, 20 DAA)?
**A.** 20

**Q.** What about the “damage to plant, SINAR” value (rate 500, 20 DAA) of the same compound?
**A.** 0

**Q.** And the “ABUTH damage to plant (100=total damage; 0=no damage)” value (Rates 15, 20 DAA)?
**A.** 0

**Q.** What about the “AMARE damage to plant (100=total damage; 0=no damage)” value (Rates 15, 20 DAA) of the same compound?
**A.** 0

**Q.** What about the “DIGSA damage to plant (100=total damage; 0=no damage)” value (Rates 15, 20 DAA) of the same compound?
**A.** 0

**Q.** What about the “ECHCG damage to plant (100=total damage; 0=no damage)” value (Rates 15, 20 DAA) of the same compound?
**A.** 0

**Q.** What about the “ORYSA damage to plant (100=total damage; 0=no damage)” value (Rates 15, 20 DAA) of the same compound?
**A.** 0

**Q.** And the “PANMI damage to plant (100=total damage; 0=no damage)” value (Rates 15, 20 DAA)?
**A.** 0

**Q.** What about the “SETFA damage to plant (100=total damage; 0=no damage)” value (Rates 15, 20 DAA) of the same compound?
**A.** 0

**Q.** And the “ABUTH damage to plant (100=total damage; 0=no damage)” value (Rates 30, 20 DAA)?
**A.** 0

**Q.** And the “AMARE damage to plant (100=total damage; 0=no damage)” value (Rates 30, 20 DAA)?
**A.** 0

**Q.** What about the “DIGSA damage to plant (100=total damage; 0=no damage)” value (Rates 30, 20 DAA) of the same compound?
**A.** 30

**Q.** And the “ECHCG damage to plant (100=total damage; 0=no damage)” value (Rates 30, 20 DAA)?
**A.** 10

**Q.** And the “ORYSA damage to plant (100=total damage; 0=no damage)” value (Rates 30, 20 DAA)?
**A.** 0

**Q.** And the “PANMI damage to plant (100=total damage; 0=no damage)” value (Rates 30, 20 DAA)?
**A.** 0

**Q.** And the “SETFA damage to plant (100=total damage; 0=no damage)” value (Rates 30, 20 DAA)?
**A.** 0

**Q.** What about the “ABUTH damage to plant (100=total damage; 0=no damage)” value (Rates 60, 20 DAA) of the same compound?
**A.** 0

**Q.** What about the “AMARE damage to plant (100=total damage; 0=no damage)” value (Rates 60, 20 DAA) of the same compound?
**A.** 0

**Q.** And the “DIGSA damage to plant (100=total damage; 0=no damage)” value (Rates 60, 20 DAA)?
**A.** 80

**Q.** And the “ECHCG damage to plant (100=total damage; 0=no damage)” value (Rates 60, 20 DAA)?
**A.** 50

**Q.** What about the “ORYSA damage to plant (100=total damage; 0=no damage)” value (Rates 60, 20 DAA) of the same compound?
**A.** 0

**Q.** What about the “PANMI damage to plant (100=total damage; 0=no damage)” value (Rates 60, 20 DAA) of the same compound?
**A.** 0

**Q.** And the “SETFA damage to plant (100=total damage; 0=no damage)” value (Rates 60, 20 DAA)?
**A.** 0

**Q.** And the “ABUTH damage to plant (100=total damage; 0=no damage)” value (Rates 130, 20 DAA)?
**A.** 0

**Q.** What about the “AMARE damage to plant (100=total damage; 0=no damage)” value (Rates 130, 20 DAA) of the same compound?
**A.** 0

**Q.** What about the “DIGSA damage to plant (100=total damage; 0=no damage)” value (Rates 130, 20 DAA) of the same compound?
**A.** 90

**Q.** And the “ECHCG damage to plant (100=total damage; 0=no damage)” value (Rates 130, 20 DAA)?
**A.** 70

**Q.** And the “ORYSA damage to plant (100=total damage; 0=no damage)” value (Rates 130, 20 DAA)?
**A.** 0

**Q.** What about the “PANMI damage to plant (100=total damage; 0=no damage)” value (Rates 130, 20 DAA) of the same compound?
**A.** 0

**Q.** What about the “SETFA damage to plant (100=total damage; 0=no damage)” value (Rates 130, 20 DAA) of the same compound?
**A.** 30

**Q.** And the “ABUTH damage to plant (100=total damage; 0=no damage)” value (Rates 250, 20 DAA)?
**A.** 20

**Q.** And the “AMARE damage to plant (100=total damage; 0=no damage)” value (Rates 250, 20 DAA)?
**A.** 0

**Q.** What about the “DIGSA damage to plant (100=total damage; 0=no damage)” value (Rates 250, 20 DAA) of the same compound?
**A.** 90

**Q.** What about the “ECHCG damage to plant (100=total damage; 0=no damage)” value (Rates 250, 20 DAA) of the same compound?
**A.** 90

**Q.** And the “ORYSA damage to plant (100=total damage; 0=no damage)” value (Rates 250, 20 DAA)?
**A.** 0

**Q.** And the “PANMI damage to plant (100=total damage; 0=no damage)” value (Rates 250, 20 DAA)?
**A.** 0

**Q.** And the “SETFA damage to plant (100=total damage; 0=no damage)” value (Rates 250, 20 DAA)?
**A.** 60

**Q.** And the “ABUTH damage to plant (100=total damage; 0=no damage)” value (Rates 500, 20 DAA)?
**A.** 20

**Q.** What about the “AMARE damage to plant (100=total damage; 0=no damage)” value (Rates 500, 20 DAA) of the same compound?
**A.** 10

**Q.** And the “DIGSA damage to plant (100=total damage; 0=no damage)” value (Rates 500, 20 DAA)?
**A.** 90

**Q.** What about the “ECHCG damage to plant (100=total damage; 0=no damage)” value (Rates 500, 20 DAA) of the same compound?
**A.** 90

**Q.** What about the “ORYSA damage to plant (100=total damage; 0=no damage)” value (Rates 500, 20 DAA) of the same compound?
**A.** 0

**Q.** What about the “PANMI damage to plant (100=total damage; 0=no damage)” value (Rates 500, 20 DAA) of the same compound?
**A.** 0

**Q.** What about the “SETFA damage to plant (100=total damage; 0=no damage)” value (Rates 500, 20 DAA) of the same compound?
**A.** 90
